Assay results: publication PMC4941420, “A Rational Approach for the Identification of Non-Hydroxamate HDAC6-Selective Inhibitors” (Scientific Reports, 2016)

Assays:
[1] = Solubility remarks during testing; type: physicochemical; conditions: tested at 100 µM in HDAC assay buffer
HDAC6 [2] = molecular target: T1, HDAC6 (Homo sapiens, UniProt Q9UBN7); test: In vitro enzymatic assay HDAC6 (Fluor de Lys); type: biochemical; conditions: for HDAC6 % of inhibition at 100 µM / inhibition at 100 µM: mean ± SD (n=3); for inhibition at 100 µM: read-out: HDAC6 % of inhibition at 100 µM; for IC50: average of at least 2 independent experiments in duplicates ± SEM
T1 construct: purchased Sigma Aldrich or Reaction Biology Corporation
T1 sequence (Q9UBN7 1-1215): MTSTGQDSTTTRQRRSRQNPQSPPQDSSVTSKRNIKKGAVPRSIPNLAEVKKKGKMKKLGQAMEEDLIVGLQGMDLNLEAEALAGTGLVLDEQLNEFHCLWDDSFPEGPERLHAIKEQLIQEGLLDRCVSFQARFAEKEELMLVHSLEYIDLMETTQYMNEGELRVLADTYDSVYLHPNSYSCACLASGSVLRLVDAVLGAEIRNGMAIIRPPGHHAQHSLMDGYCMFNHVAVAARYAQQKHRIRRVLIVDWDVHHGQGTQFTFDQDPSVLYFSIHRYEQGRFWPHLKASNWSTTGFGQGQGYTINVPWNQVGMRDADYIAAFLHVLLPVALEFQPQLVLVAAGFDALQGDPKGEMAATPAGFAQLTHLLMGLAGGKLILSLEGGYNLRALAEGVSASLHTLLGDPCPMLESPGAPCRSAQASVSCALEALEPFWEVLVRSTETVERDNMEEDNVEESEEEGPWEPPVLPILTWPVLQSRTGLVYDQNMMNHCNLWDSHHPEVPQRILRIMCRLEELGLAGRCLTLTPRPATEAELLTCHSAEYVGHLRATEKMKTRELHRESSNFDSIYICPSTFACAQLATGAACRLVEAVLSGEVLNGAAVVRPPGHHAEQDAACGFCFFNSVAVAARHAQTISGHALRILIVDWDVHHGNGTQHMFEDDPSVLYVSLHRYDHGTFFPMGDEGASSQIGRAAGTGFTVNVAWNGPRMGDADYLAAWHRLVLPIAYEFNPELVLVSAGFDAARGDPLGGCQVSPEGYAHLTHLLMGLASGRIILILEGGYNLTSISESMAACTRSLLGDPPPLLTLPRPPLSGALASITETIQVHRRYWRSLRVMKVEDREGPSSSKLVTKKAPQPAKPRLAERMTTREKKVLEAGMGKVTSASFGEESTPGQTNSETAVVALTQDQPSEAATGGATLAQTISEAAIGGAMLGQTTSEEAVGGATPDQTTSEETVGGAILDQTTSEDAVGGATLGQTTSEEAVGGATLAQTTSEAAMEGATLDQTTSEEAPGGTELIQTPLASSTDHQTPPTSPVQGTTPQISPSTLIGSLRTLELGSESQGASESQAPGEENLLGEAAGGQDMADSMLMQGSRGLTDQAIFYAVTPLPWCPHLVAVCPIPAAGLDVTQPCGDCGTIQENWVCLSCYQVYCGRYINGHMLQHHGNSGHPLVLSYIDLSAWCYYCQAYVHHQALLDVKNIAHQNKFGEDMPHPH

HDAC8 = molecular target: T2, HDAC8 (Homo sapiens, UniProt Q9BY41); test: In vitro enzymatic assay HDAC8 (Fluor de Lys); type: biochemical; conditions: average of at least 2 independent experiments in duplicates ± SEM
T2 construct: purchased Sigma Aldrich or Reaction Biology Corporation
T2 sequence (Q9BY41 1-377): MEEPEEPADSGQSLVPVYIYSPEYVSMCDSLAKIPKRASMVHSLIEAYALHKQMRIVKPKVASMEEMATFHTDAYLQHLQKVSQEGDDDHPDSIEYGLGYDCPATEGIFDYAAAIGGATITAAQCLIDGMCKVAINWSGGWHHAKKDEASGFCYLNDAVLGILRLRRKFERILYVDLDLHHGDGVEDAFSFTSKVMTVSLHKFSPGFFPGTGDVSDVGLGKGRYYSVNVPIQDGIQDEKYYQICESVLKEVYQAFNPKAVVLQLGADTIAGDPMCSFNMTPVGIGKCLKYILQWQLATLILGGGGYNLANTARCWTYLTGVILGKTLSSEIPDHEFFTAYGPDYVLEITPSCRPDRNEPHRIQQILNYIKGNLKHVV

HDAC4 = molecular target: T3, HDAC4 (Homo sapiens, UniProt P56524); test: In vitro enzymatic assay HDAC4 (Fluor de Lys); type: biochemical; conditions: average of at least 2 independent experiments in duplicates ± SEM
T3 construct: purchased Sigma Aldrich or Reaction Biology Corporation
T3 sequence (P56524 whole entry): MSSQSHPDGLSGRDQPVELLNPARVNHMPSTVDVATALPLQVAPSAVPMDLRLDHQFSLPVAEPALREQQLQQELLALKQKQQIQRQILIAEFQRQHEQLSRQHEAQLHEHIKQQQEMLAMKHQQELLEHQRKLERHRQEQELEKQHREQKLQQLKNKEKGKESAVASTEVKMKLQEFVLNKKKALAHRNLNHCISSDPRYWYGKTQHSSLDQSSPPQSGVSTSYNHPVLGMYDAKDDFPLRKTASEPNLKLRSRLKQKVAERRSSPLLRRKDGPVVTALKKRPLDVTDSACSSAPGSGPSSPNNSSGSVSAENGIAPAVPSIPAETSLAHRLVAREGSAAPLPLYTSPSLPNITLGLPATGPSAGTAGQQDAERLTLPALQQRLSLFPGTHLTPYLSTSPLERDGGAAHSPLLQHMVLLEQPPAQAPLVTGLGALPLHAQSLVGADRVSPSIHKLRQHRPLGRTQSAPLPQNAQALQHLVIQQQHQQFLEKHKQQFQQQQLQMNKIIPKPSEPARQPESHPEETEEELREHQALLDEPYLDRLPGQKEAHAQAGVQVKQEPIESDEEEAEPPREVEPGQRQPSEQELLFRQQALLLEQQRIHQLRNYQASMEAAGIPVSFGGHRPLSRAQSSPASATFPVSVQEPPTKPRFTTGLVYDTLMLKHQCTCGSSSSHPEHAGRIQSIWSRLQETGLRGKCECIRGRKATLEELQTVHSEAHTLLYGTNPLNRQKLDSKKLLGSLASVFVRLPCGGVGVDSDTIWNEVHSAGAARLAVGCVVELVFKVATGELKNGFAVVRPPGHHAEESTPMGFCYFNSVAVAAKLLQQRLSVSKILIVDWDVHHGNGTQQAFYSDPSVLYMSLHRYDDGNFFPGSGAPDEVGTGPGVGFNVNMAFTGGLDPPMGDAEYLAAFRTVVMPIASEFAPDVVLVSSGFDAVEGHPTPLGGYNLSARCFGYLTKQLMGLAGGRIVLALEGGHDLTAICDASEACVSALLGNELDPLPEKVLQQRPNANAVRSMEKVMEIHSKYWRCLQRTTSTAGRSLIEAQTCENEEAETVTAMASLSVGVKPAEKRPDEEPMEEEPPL

[3] = test system: class I HDACs (HeLa nuclear extracts); test: HDAC activity of HeLa nuclear extracts (Fluor de Lys); type: biochemical, human
HDAC2 = molecular target: T4, HDAC2 (Homo sapiens, UniProt Q92769); test: In vitro enzymatic assay HDAC2 (Fluor de Lys); type: biochemical; conditions: average of at least 2 independent experiments in duplicates ± SEM
T4 construct: purchased Sigma Aldrich or Reaction Biology Corporation
T4 sequence (Q92769 whole entry): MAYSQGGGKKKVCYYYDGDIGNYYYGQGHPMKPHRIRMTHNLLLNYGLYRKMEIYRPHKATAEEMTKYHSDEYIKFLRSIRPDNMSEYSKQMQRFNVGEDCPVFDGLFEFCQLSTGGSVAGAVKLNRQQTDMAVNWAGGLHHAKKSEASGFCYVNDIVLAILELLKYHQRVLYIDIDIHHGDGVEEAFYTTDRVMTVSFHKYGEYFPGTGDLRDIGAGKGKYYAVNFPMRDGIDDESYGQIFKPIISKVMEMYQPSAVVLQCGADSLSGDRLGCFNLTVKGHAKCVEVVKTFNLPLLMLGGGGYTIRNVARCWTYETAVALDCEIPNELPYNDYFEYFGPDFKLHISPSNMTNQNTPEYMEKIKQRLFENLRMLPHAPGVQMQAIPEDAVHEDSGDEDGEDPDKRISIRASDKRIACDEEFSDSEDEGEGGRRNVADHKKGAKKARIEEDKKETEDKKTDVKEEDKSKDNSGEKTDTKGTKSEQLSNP

HDAC6 [4] = test: HDAC ChEMBL dataset / literature, enzymatic IC50 HDAC6; type: biochemical; conditions: ratio of ChEMBL IC50 values
[5] = 100 μM, average of at least 3 independent experiments in duplicates (Table 1)

| Structure (SMILES) | HDAC6 % of inhibition at 100 µM (HDAC6 [2]) | also measured |
| --- | --- | --- |
| Cc1cc2ccccc2n2c(SCC(=O)Nc3ccc(S(N)(=O)=O)cc3)nnc12 [AQ-1] | -16.4 ± 9.3% | solubility remark in HDAC6 screening [1]: Solubility issues |
| C=CCn1c(SCC(=O)Nc2ccc(S(N)(=O)=O)cc2)nnc1-c1sc(N)nc1C [AS-1] | -1.8 ± 11.1% |  |
| NNC(=O)c1cc(Br)cs1 [AK-20] | 22.3 ± 8.7% |  |
| NNC(=O)C12CC3CC(C1)CC(n1cnc(Cl)n1)(C3)C2 [AK-4] | 3.0 ± 0.3% |  |
| COc1cc(/C=C2/SC(N)=NC2=O)ccc1OCc1ccc(Cl)cc1Cl [AG-2] | -2.8 ± 9.7% Self-fluorescence |  |
| CCOc1cc(/C=N/O)cc(Cl)c1OC [AK-9] | 8.0 ± 4.6% |  |
| NNC(=O)c1ccc(COc2ccccc2Br)cc1 [AK-18] |  | IC50 (HDAC8): > 300 µM; inhibition at 100 µM (HDAC6 [2]): 69 ± 2.4%; IC50 (HDAC6 [2]): 16.4 ± 1.1 µM; IC50 (HDAC4): > 300 µM; HeLa % of inhibition at 100 μM [3, 5]: 0.4 ± 3.9%; IC50 (HDAC2): > 1000 µM |
| COc1cc(/C=N/NC(N)=S)ccc1OCC(=O)Nc1ccc(Br)c(Cl)c1 [AN-2] | 4.9 ± 8.2% Self-fluorescence |  |
| CC1(C)Cc2ccccc2C2=C/C(=N/O)C(=O)N21 [AG-1] |  | IC50 (HDAC8): 0.3 ± 0.005 µM; inhibition at 100 µM (HDAC6 [2]): 83.8 ± 2.3%; selectivity index (SI) with respect to HDAC2 (HDAC6 [2]; HDAC6 versus HDAC2): > 50; IC50 (HDAC6 [2]): 21.7 ± 1.2 µM; IC50 (HDAC4): 111 ± 3.5 µM; HeLa % of inhibition at 100 μM [3, 5]: 38.2 ± 1.1%; IC50 (HDAC2): > 1000 µM |
| CC(C)Oc1cccc(C(=O)NN)c1 [AK-10] | 13.9 ± 17.9% |  |
| COc1cc(/C=N/NC(N)=S)ccc1OCC(=O)Nc1ccc(C)c(C)c1 [AN-3] | -4.0 ± 3.9% Self-fluorescence |  |
| CC(C)(C)CC(C)(C)c1ccc(OCC(=O)NN)c([N+](=O)[O-])c1 [AG-4] | 5.5 ± 2.9% |  |
| Cn1cccc1C(=O)N1CCc2cc(C(=O)NO)ccc2C1 [CHEMBL2431901] |  | Isoform selectivity (ratio) HDAC2/HDAC6 (HDAC6 [4]): 1388.9; Isoform selectivity (ratio) HDAC4/HDAC6 (HDAC6 [4]): 1388.9; Isoform selectivity (ratio) HDAC8/HDAC6 (HDAC6 [4]): 58.33 |
| Cn1cc(Br)c(C(=O)NN)n1 [AK-3] | 0.1 ± 2.3% |  |
| CC(C)C12CC3CC(CC(C(=O)NN)(C3)C1)C2 [AF-1] | 5.2 ± 1.5% |  |

Second part, led by results:

| HDAC6 % of inhibition at 100 µM (HDAC6 [2]) | Structure (SMILES) | also measured |
| --- | --- | --- |
| 12.1 ± 1.6% | Cc1ccccc1COc1ccc(/C=N/NC(N)=S)cc1 [AH-2] |  |
| 18.3 ± 0.1% | CC(C)c1ccc(OCc2cccc(C(=O)NN)c2)cc1 [AK-1] |  |
| 36.9 ± 11.3% | CCOc1ccc(OCc2ccc(C(=O)NN)o2)cc1 [AK-16] |  |
| 35.5 ± 10.5% | CCOc1ccc(OCc2cccc(C(=O)NN)c2)cc1 [AK-17] |  |
| 25.4 ± 9.7% | NNC(=O)c1cccc(COc2ccccc2Br)c1 [AK-22] |  |
| 42.1 ± 23.0% | COc1ccccc1OCc1ccc(C(=O)NN)o1 [AK-15] | HeLa % of inhibition at 100 μM ([3]; 100 µM, mean ± SD (n=3) (Table S6)): -2.6 ± 3.0% |
